ChEMBL document CHEMBL5543172, “Novel Isoalantolactone-Based Derivatives as Potent NLRP3 Inflammasome Inhibitors: Design, Synthesis, and Biological Characterization” (J Med Chem, 2024)
Calls of active or inactive are those of the source. The rule behind the calls is not given here.

Key:
[1] = biological target: 5-hydroxytryptamine receptor 7 (Homo sapiens) (UniProt P34969); test: Activation of 5-HT7 receptor (unknown origin) at 1 uM relative to control
[2] = Drug distribution in C57BL/6 mouse colon at 30 mg/kg, ip measured after 0.5 hrs by LC-MS/MS analysis; type: ADME, organism-based; conditions: read-out: Drug uptake
[3] = biological target: NACHT, LRR and PYD domains-containing protein 3 (Mus musculus) (UniProt Q8R4B8); test: Inhibition of NLRP3 inflammasome activation in LPS/Nigericin induced mouse BMDM cells assessed as effect on pro-casapase-1 expression at 0.25 to 1 uM preincubated with LPS for 3 hrs followed by compound addition for 40 mins and further stimulated with nigericin for 40 mins by Western blot analysis; type: cell-based; conditions: dose 0.25-1 µM, time 80.0 min
NACHT, LRR and PYD domains-containing protein 3 (Mus musculus), sequence (Q8R4B8 whole entry, the tested form may be a part): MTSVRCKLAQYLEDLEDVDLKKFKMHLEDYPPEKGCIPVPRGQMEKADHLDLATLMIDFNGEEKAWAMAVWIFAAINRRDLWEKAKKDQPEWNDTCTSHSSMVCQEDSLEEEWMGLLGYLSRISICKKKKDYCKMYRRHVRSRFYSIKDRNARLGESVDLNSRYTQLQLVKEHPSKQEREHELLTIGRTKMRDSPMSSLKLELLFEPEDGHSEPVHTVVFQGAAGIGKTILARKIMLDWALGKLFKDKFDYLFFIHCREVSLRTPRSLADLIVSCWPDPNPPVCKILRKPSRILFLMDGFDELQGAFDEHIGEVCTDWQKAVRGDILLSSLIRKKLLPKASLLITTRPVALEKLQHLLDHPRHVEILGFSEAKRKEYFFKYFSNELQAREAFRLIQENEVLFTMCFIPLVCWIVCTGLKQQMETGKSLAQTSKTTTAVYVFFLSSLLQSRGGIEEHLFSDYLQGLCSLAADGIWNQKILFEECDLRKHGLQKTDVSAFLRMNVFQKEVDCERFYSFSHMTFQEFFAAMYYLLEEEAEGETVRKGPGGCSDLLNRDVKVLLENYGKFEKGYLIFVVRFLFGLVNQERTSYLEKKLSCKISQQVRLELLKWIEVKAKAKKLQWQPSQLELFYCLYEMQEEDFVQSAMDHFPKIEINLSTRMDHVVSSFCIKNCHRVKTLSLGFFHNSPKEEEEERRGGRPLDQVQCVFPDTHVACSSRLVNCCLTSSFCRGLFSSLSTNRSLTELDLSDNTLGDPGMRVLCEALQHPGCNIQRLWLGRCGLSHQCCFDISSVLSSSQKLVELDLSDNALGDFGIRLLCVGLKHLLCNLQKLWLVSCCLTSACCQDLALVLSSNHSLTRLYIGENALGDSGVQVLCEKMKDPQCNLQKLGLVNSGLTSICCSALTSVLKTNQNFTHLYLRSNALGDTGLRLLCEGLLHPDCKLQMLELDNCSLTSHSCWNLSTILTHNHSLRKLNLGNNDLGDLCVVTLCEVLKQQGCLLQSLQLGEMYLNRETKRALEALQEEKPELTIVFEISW

[4] = biological target: Prostaglandin E2 receptor EP2 subtype (Homo sapiens) (UniProt P43116); test: Activation of EP2 receptor (unknown origin) at 1 uM relative to control
[5] = biological target: Substance-K receptor (Homo sapiens) (UniProt P21452); test: Activation of NK2 receptor (unknown origin) at 1 uM relative to control
[6] = MRT (0 to t) in male C57BL/6 mouse at 30 mg/kg, ip measured upto 1440 mins by LC-MS/MS analysis; type: ADME, organism-based; conditions: in vivo
[7] = Cytotoxicity against human PBMC cells at 1.25 uM measured after 24 hrs by CCK-8 method; type: toxicity, cell-based
Mus musculus [8] = test: Anti-colitis activity against DSS-induced ulcerative colitis C57BL/6 mouse model assessed as reduction in IL-1 beta level at 15 to 30 mg/kg, ip by ELISA method; type: functional, organism-based; conditions: dose 15-30 mg/kg
[9] = biological target: Sodium-dependent serotonin transporter (Homo sapiens) (UniProt P31645); test: Activation of 5-HTT (unknown origin) at 1 uM relative to control
[10] = Drug distribution in C57BL/6 mouse plasma at 30 mg/kg, ip measured after 2 hrs by LC-MS/MS analysis; type: ADME, organism-based
[11] = biological target: NACHT, LRR and PYD domains-containing protein 3 (Mus musculus) (UniProt Q8R4B8); test: Inhibition of NLRP3 inflammasome activation in LPS/Nigericin induced mouse BMDM cells assessed as effect on pro-IL-1 beta expression at 0.25 to 1 uM preincubated with LPS for 3 hrs followed by compound addition for 40 mins and further stimulated with nigericin for 40 mins by Western blot analysis; type: cell-based; conditions: dose 0.25-1 µM, time 80.0 min
THP-1 [12] = test: Cytotoxicity against human THP-1 cells at 4 uM measured after 24 hrs by CCK-8 method; type: functional, cell-based
[13] = biological target: Androgen receptor (Homo sapiens) (UniProt P10275); test: Inhibition of Androgen receptor (unknown origin) at 1 uM relative to control
Androgen receptor (Homo sapiens), sequence (P10275 whole entry): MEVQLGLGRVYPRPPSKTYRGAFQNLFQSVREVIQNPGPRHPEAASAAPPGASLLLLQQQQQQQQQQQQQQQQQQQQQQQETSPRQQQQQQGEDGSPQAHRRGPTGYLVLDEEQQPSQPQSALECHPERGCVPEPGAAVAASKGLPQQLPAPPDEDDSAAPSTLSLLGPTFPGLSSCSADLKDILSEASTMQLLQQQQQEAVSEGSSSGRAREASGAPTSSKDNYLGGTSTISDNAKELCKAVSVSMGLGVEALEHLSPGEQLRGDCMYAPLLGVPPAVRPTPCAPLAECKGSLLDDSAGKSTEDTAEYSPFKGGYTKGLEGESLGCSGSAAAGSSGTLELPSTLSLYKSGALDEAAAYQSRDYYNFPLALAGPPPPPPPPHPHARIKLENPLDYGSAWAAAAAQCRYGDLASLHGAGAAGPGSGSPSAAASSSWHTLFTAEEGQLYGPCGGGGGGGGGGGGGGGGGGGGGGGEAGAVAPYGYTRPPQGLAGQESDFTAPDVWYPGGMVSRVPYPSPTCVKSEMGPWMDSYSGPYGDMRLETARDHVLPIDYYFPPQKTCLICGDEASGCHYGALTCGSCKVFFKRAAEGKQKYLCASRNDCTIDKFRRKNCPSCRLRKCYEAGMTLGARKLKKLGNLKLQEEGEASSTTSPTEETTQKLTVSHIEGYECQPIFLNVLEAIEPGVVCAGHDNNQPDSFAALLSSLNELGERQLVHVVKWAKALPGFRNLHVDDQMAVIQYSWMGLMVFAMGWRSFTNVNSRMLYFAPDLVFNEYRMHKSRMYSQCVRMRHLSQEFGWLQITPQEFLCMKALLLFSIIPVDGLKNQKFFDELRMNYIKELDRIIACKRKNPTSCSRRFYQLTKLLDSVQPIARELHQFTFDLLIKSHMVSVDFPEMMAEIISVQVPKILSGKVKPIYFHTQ

THP-1 [14] = test: Inhibition of pyroptosis in LPS/nigericin induced PMA-differentiated human THP-1 cells assessed as reduction in LDH release at […] preincubated with LPS for 3 hrs followed by compound addition for 40 mins and further stimulated with nigericin for 40 mins by LDH assay; type: functional, cell-based; conditions: dose lower 0.25 µM, time 80.0 min
Mus musculus [15] = test: Anti-colitis activity against DSS-induced ulcerative colitis C57BL/6 mouse model assessed as alleviation of thickening of inherent base layer in colon at 15 to 30 mg/kg, ip administered daily and measured after 10 days by H and E staining based analysis; type: functional, organism-based; conditions: dose 15-30 mg/kg, time 10.0 day
[16] = biological target: Cannabinoid receptor 2 (Homo sapiens) (UniProt P34972); test: Activation of CB2 receptor (unknown origin) at 1 uM relative to control
Cannabinoid receptor 2 (Homo sapiens), sequence (P34972 whole entry): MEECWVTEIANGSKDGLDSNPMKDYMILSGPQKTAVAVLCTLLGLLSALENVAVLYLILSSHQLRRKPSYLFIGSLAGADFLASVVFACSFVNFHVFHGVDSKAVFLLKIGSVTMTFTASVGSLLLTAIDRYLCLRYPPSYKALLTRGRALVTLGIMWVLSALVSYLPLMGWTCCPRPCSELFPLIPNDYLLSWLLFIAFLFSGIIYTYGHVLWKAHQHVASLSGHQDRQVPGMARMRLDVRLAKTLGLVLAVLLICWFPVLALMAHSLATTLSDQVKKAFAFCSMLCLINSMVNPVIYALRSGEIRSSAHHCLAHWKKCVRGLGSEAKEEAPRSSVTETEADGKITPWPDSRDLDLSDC

[17] = biological target: 3',5'-cyclic-AMP phosphodiesterase 4D (Homo sapiens) (UniProt Q08499); test: Activation of PDE4D2 (unknown origin) at 1 uM relative to control
BMDM = test: Induction of DNA damage in mouse BMDM cells assessed as DNA fragmentation at 1 uM measured after 24 hrs by fluorescence microscope based comet assay; type: functional, cell-based
[18] = biological target: NACHT, LRR and PYD domains-containing protein 3 (Mus musculus, UniProt Q8R4B8); test: Inhibition of NLRP3 inflammasome activation in LPS-activated mouse BMDM cells assessed as inhibition of nigericin induced IL-1beta secretion preincubated with LPS for 3 hrs followed by compound addition for 40 mins and further stimulated with nigericin for 40 mins by ELISA method; type: cell-based
NACHT, LRR and PYD domains-containing protein 3, sequence (Q8R4B8 whole entry, the tested form may be a part): as the sequence (Q8R4B8 whole entry, the tested form may be a part) above

Homo sapiens [19] = species: Homo sapiens; test: Inhibition of GlyRalpha1beta (unknown origin) at 1 uM relative to control
[20] = biological target: Transient receptor potential cation channel subfamily V member 1 (Homo sapiens) (UniProt Q8NER1); test: Activation of TRPV1 (unknown origin) at 1 uM relative to control
Transient receptor potential cation channel subfamily V member 1 (Homo sapiens), sequence (Q8NER1 whole entry): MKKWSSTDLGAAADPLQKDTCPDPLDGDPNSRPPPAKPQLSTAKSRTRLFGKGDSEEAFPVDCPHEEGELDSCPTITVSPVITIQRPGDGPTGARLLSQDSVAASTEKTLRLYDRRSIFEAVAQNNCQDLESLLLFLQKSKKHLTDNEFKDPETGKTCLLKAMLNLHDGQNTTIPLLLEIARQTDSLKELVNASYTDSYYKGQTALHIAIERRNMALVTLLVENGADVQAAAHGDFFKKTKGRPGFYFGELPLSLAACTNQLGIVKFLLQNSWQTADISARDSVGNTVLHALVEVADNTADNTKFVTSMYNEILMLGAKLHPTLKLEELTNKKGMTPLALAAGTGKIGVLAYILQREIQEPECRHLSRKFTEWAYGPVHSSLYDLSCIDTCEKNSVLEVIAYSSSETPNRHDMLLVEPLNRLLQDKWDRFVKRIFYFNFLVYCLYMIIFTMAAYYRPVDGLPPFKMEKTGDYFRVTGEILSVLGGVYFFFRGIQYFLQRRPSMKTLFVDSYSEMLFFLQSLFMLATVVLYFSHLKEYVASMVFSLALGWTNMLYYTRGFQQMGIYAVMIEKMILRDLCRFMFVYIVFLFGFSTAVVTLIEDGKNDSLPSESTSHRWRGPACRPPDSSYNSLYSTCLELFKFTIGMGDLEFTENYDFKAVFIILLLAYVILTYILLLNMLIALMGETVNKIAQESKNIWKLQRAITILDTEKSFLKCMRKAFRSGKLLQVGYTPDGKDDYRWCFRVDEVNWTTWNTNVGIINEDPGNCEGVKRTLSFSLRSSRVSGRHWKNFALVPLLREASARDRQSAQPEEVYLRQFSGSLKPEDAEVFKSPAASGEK

[21] = biological target: Substance-P receptor (Homo sapiens) (UniProt P25103); test: Inhibition of NK1 receptor (unknown origin) at 1 uM relative to control
Substance-P receptor (Homo sapiens), sequence (P25103 whole entry): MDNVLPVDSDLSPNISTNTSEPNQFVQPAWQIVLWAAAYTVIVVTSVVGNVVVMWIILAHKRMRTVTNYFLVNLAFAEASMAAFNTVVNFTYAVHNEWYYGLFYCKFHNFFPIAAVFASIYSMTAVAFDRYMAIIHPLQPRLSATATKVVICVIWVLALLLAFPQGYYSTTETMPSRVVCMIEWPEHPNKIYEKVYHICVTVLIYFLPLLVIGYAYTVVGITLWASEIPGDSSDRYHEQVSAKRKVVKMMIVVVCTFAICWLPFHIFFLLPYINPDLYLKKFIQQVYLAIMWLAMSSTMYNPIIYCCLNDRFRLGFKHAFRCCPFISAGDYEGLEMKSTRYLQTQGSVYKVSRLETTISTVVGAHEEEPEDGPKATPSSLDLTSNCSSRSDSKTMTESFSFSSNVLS

[22] = biological target: Muscarinic acetylcholine receptor M3 (Homo sapiens) (UniProt P20309); test: Inhibition of muscarinic M3 receptor (unknown origin) at 1 uM relative to control
Mus musculus [23] = test: Anti-colitis activity against DSS-induced ulcerative colitis C57BL/6 mouse model assessed as reduction in DAI score at 15 to 30 mg/kg, ip administered daily and measured upto 10 days; type: functional, organism-based; conditions: dose 15-30 mg/kg, time <= 10.0 day
[24] = biological target: NACHT, LRR and PYD domains-containing protein 3 (Mus musculus) (UniProt Q8R4B8); test: Inhibition of NLRP3 inflammasome activation in LPS/nigericin induced mouse BMDM cells assessed as reduction in GSDMD-N expression at 0.25 to 1 uM preincubated with LPS for 3 hrs followed by compound addition for 40 mins and further stimulated with nigericin for 40 mins by Western blot analysis; type: cell-based; conditions: dose 0.25-1 µM, time 80.0 min
Homo sapiens [25] = species: Homo sapiens; test: Activation of GlyRalpha1beta (unknown origin) at 1 uM relative to control
[26] = Cytotoxicity against human PBMC cells at 0.08 to 0.63 uM measured after 24 hrs by CCK-8 method; type: toxicity, cell-based; conditions: dose 0.08-0.63 µM
[27] = Cmax in male C57BL/6 mouse at 30 mg/kg, ip measured upto 1440 mins by LC-MS/MS analysis; type: ADME, organism-based; conditions: in vivo
Cytochrome P450 2B6 = Cytochrome P450 2B6 (Homo sapiens, UniProt P20813); test: Inhibition of CYP2B6 in human liver microsomes preincubated for 5 mins followed by NADPH addition and measured after 30 to 60 mins by LC-MS/MS analysis; type: ADME, Microsome
[28] = Drug distribution in C57BL/6 mouse colon at 30 mg/kg, ip measured after 24 hrs by LC-MS/MS analysis; type: ADME, organism-based; conditions: read-out: Drug uptake
[29] = biological target: Adenosine receptor A2a (Homo sapiens) (UniProt P29274); test: Activation of adenosine A2A receptor (unknown origin) at 1 uM relative to control
Adenosine receptor A2a (Homo sapiens), sequence (P29274 whole entry): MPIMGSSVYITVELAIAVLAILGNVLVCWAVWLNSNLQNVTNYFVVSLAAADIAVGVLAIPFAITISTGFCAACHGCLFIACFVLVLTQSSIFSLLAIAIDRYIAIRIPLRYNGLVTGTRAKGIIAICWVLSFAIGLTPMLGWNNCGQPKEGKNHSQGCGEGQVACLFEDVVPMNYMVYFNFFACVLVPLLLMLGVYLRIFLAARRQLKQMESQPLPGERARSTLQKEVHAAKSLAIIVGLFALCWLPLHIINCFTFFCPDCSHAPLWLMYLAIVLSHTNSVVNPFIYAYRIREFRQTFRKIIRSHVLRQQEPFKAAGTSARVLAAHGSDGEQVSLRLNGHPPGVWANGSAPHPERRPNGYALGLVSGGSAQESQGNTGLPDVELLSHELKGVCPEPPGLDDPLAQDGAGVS

Cytochrome P450 3A4 = Cytochrome P450 3A4 (Homo sapiens, UniProt P08684); test: Inhibition of CYP3A4 in human liver microsomes using midazolam as substrate preincubated for 5 mins followed by NADPH addition and measured after 30 to 60 mins by LC-MS/MS analysis; type: ADME, Microsome
Cytochrome P450 3A4, sequence (P08684 whole entry): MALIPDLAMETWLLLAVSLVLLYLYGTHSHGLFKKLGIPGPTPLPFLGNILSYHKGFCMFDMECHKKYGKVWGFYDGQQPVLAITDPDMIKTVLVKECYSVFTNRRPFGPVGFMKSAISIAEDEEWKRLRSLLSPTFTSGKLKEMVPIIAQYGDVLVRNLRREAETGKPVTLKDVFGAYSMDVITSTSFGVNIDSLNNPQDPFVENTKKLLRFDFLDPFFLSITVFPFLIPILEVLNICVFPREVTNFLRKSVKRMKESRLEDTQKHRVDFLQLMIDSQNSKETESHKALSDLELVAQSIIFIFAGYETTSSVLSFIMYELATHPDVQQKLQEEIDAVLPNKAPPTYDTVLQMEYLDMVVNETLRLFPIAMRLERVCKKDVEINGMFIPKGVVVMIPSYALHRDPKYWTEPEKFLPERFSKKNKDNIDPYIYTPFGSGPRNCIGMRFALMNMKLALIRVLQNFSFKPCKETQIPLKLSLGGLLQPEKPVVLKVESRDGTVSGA

[30] = biological target: Mu-type opioid receptor (Homo sapiens) (UniProt P35372); test: Activation of mu opioid receptor (unknown origin) at 1 uM relative to control
Mus musculus [31] = test: Anti-colitis activity against DSS-induced ulcerative colitis C57BL/6 mouse model assessed as reduction in colon length shortening at 15 to 30 mg/kg, ip administered daily and measured upto 10 days; type: functional, organism-based; conditions: dose 15-30 mg/kg, time <= 10.0 day

5-hydroxytryptamine receptor 7 (Homo sapiens), sequence (P34969 whole entry): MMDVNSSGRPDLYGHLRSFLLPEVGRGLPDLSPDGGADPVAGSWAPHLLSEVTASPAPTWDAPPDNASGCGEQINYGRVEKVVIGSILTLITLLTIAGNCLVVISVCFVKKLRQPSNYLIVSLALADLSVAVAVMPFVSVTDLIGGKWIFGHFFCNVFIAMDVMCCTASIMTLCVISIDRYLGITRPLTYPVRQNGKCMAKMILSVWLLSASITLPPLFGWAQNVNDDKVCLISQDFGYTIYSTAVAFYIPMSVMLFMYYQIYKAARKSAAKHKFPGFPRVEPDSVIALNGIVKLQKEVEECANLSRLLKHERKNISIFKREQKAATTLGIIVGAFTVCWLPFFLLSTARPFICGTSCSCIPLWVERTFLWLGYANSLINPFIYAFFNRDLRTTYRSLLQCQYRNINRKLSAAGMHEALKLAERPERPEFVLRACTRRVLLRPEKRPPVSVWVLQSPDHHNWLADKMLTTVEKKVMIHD

Activity [1]: < 50% | concentration at 0.5 h [2]: 12900 ng/g | Activity [3]: inactive | Activity [4]: < 50% | Activity [5]: < 50% | MRT last at 24 h [6]: 11 h | Activity [9]: < 50% | concentration at 2 h [10]: 1.97 ng/mL | inhibition [11]: inactive | inhibition [13]: < 50% | Activity [16]: < 50% | Activity [17]: < 50% | IC50 [18]: 0.739 µM | inhibition (Homo sapiens [19]): < 50% | Activity [20]: < 50% | inhibition [21]: < 50% | inhibition [22]: < 50% | inhibition [24]: Active | Activity (Homo sapiens [25]): < 50% | Cmax [27]: 1.57 ng/mL | IC50 (Cytochrome P450 2B6): > 100 µM | concentration at 24 h [28]: 81.3 ng/g | Activity [29]: < 50% | IC50 (Cytochrome P450 3A4): > 100 µM | Activity [30]: < 50%
Structure (SMILES): C=C1C(=O)O[C@@H]2C[C@@]3(C)CC[C@@H](OC(=O)c4cnc(Cl)cc4Cl)C(=C)[C@@H]3C[C@H]12
Activity [7]: Toxic | Activity (Mus musculus [8]): Active | Activity (THP-1 [12]): Active | inhibition (THP-1 [14]): Active | Activity (Mus musculus [15]): Active | Activity (BMDM): Active | Activity (Mus musculus [23]): Active | Activity [26]: Non-Toxic | Activity (Mus musculus [31]): Active
